A value given as a limit tells only on which side of the number the result lay.

In general, IC50 refers to the concentration that inhibits the measured activity by half.

The target in the first assay is His-tagged N-terminal ATP binding domain (amino acid residues 9-236) of HSP90α (Homo sapiens, UniProt P07900). Kind of assay: HSP90 inhibitor binding potency: TRF competition binding assay. The following applies: Table I; read-out: Hsp90 IC50 Range. Summed up: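 Competition against biotinylated radicicol for binding to the His-tagged 9-236 ATP domain of HSP90α: 2 h, room temperature, HEPES/MgCl2/KCl/BSA buffer. Streptavidin capture, then europium-labeled anti-His antibody and enhancement solution; europium counts give IC50.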
Regarding `Cc1nc(N)nc2c1C(=O)CC(c1c(O)cccc1C1=CCCCC1)C2` (stereo not shown) [Compound 62, 2-amino-7-(2-cyclohex-1-enyl-6-hydroxy-phenyl)-4-methyl-7,8-dihydro-6H-quinazolin-5-one], the IC50 is below 1000 nM.
On to `COc1ccc(-c2cccnc2Cl)c(C2CC(=O)c3c(C)nc(N)nc3C2)c1` (stereo not shown) [Compound 108, 2-amino-7-[2-(2-chloropyridin-3-yl)-5-methoxyphenyl]-4-methyl-7,8-dihydroquinazolin-5(6H)-one], for which the IC50 was below 1000 nM.
Take `Cc1nc(N)nc2c1C(=O)CC(c1ccccc1Nc1ccccc1)C2` (stereo not shown) [Compound 164, 2-amino-4-methyl-7-(2-phenylamino-phenyl)-7,8-dihydro-6H-quinazolin-5-one]: the IC50 was below 1000 nM.
Take `Cc1nc(N)nc2c1C(=O)CC(c1cccnc1Cl)C2` (stereo not shown) [Compound 4, 2-amino-7-(2-chloropyridin-3-yl)-4-methyl-7,8-dihydroquinazolin-5(6H)-one]: the IC50 was above 10000 nM.
Take `Cc1ccc(-c2ccccc2C2CC(=O)c3c(C)nc(N)nc3C2)nc1` (stereo not shown) [Compound 117, 2-amino-4-methyl-7-[2-(5-methylpyridin-2-yl)phenyl]-7,8-dihydroquinazolin-5(6H)-one]: the IC50 was below 1000 nM.
For the compound `Cc1ncccc1-c1ccccc1C1CC(=O)c2c(C)nc(N)nc2C1` (stereo not shown) [Compound 116, 2-amino-4-methyl-7-[2-(2-methylpyridin-3-yl)phenyl]-7,8-dihydroquinazolin-5(6H)-one], the concentration for half-maximal inhibition (IC50) is below 1000 nM.
In the case of `CC(=O)c1cccc(-c2ccccc2C2CC(=O)c3c(C)nc(N)nc3C2)n1` (stereo not shown) [Compound 92, 7-[2-(6-acetylpyridin-2-yl)phenyl]-2-amino-4-methyl-7,8-dihydroquinazolin-5(6H)-one], the half-inhibitory concentration (IC50) lay within 1000 to 10000 nM.
The same measure, in the same setting: to `Cc1nc(N)nc2c1C(=O)CC(c1c(Cl)cccc1OCCN1CCN(C)CC1)C2` (stereo not shown) [Compound 154, 2-amino-7-{2-chloro-6-[2-(4-methyl-piperazin-1-yl)-ethoxy]-phenyl}-4-methyl-7,8-dihydro-6H-quinazolin-5-one] belongs above 10000 nM; to `Cc1nc(N)nc2c1C(=O)CC(c1ccccc1-c1cncc3ccccc13)C2` (stereo not shown) [Compound 100, 2-amino-7-(2-isoquinolin-4-ylphenyl)-4-methyl-7,8-dihydroquinazolin-5(6H)-one], 1000 to 10000 nM.
For the compound `CCOc1cccc(-c2cccnc2F)c1C1CC(=O)c2c(C)nc(N)nc2C1` (stereo not shown) [Compound 151, 2-amino-7-[2-ethoxy-6-(2-fluoro-pyridin-3-yl)-phenyl]-4-methyl-7,8-dihydro-6H-quinazolin-5-one], the concentration for half-maximal inhibition (IC50) is below 1000 nM.
On to `Cc1nc(N)nc2c1C(=O)CC(c1ccccc1-c1cccc3c1NC(=O)C3)C2` (stereo not shown) [Compound 131, 2-amino-4-methyl-7-[2-(2-oxo-2,3-dihydro-1H-indol-7-yl)phenyl]-7,8-dihydroquinazolin-5(6H)-one], for which the IC50 lay within 1000 to 10000 nM.
As for `Cc1nc(N)nc2c1C(=O)CC(c1ccccc1C#Cc1ccccc1)C2` (stereo not shown) [Compound 37, 2-amino-4-methyl-7-[2-(phenylethynyl)phenyl]-7,8-dihydroquinazolin-5(6H)-one], the concentration for half-maximal inhibition (IC50) is above 10000 nM.
Same read-out and setting: the result for `Cc1nc(N)nc2c1C(=O)CC(c1ccccc1C1CCCCC1)C2` (stereo not shown) [Compound 171, 2-amino-7-(2-cyclohexylphenyl)-4-methyl-7,8-dihydroquinazolin-5(6H)-one] reads below 1000 nM; that for `Cc1nc(N)nc2c1C(=O)CC(c1cccc(C(N)=O)c1)C2` (stereo not shown) [Compound 166, 3-(2-amino-4-methyl-5-oxo-5,6,7,8-tetrahydroquinazolin-7-yl)benzamide], above 10000 nM; that for `Cc1nc(N)nc2c1C(=O)CC(c1ccccc1OC1CCCCC1)C2` (stereo not shown) [Compound 17, 2-amino-7-[2-(cyclohexyloxy)phenyl]-4-methyl-7,8-dihydroquinazolin-5(6H)-one], below 1000 nM.
Consider `COc1ccc(C2CC(=O)c3c(C)nc(N)nc3C2)cc1` (stereo not shown) [Compound 2, 2-amino-7-(4-methoxyphenyl)-4-methyl-7,8-dihydroquinazolin-5(6H)-one], for which the IC50 is 1000 to 10000 nM.
`Cc1nc(N)nc2c1C(=O)CC(c1nn(C)cc1-c1cccnc1F)C2` (stereo not shown) [Compound 63, 2-amino-7-[4-(2-fluoro-pyridin-3-yl)-1-methyl-1H-pyrazol-3-yl]-4-methyl-7,8-dihydro-6H-quinazolin-5-one]: the IC50 is below 1000 nM.
The same measure, in the same setting: to `Cc1nc(N)nc2c1C(=O)CC(c1ccccc1Oc1cc[nH]c(=O)c1)C2` (stereo not shown) [Compound 167, 2-amino-4-methyl-7-[2-(2-oxo-1,2-dihydro-pyridin-4-yloxy)-phenyl]-7,8-dihydro-6H-quinazolin-5-one] belongs 1000 to 10000 nM; to `Cc1nc(N)nc2c1C(=O)CC(c1ccccc1Oc1cnccn1)C2` (stereo not shown) [Compound 143, 2-amino-4-methyl-7-[2-(pyrazin-2-yloxy)phenyl]-7,8-dihydroquinazolin-5(6H)-one], below 1000 nM.

The assay is the same for the next values; noted with them: Table II; read-out: Hsp90 IC50 Range.
Consider `Cc1nc(N)nc2c1C(=O)CC(c1ccccc1S(=O)(=O)N1CCCC1)C2` (stereo not shown) [Compound 184, 2-amino-4-methyl-7-[2-(pyrrolidine-1-sulfonyl)-phenyl]-7,8-dihydro-6H-quinazolin-5-one], for which the IC50 is 1000 to 10000 nM.
Turning to `Cc1nc(N)nc2c1C(=O)CC(c1nccn1-c1cccc(OC(F)(F)F)c1)C2` (stereo not shown) [Compound 198, 2-amino-4-methyl-7-[1-(3-trifluoromethoxy-phenyl)-1H-imidazol-2-yl]-7,8-dihydro-6H-quinazolin-5-one], the IC50 was above 10000 nM.
Regarding `Cc1nc(N)nc2c1C(=O)CC(c1cnccc1-c1cccc(Br)c1)C2` (stereo not shown) [Compound 187, 2-amino-7-[4-(3-bromo-phenyl)-pyridin-3-yl]-4-methyl-7,8-dihydro-6H-quinazolin-5-one], the 50% inhibitory concentration (IC50) was below 1000 nM.
Consider `CCc1cccc(-n2ccnc2C2CC(=O)c3c(C)nc(N)nc3C2)n1` (stereo not shown) [Compound 201, 2-amino-7-[1-(6-ethyl-pyridin-2-yl)-1H-imidazol-2-yl]-4-methyl-7,8-dihydro-6H-quinazolin-5-one], for which the IC50 fell in the range of 1000 to 10000 nM.
With `COc1ccc(-c2cccnc2OC)c(C2CC(=O)c3c(C)nc(N)nc3C2)c1` (stereo not shown) [Compound 253, 2-amino-7-[5-methoxy-2-(2-methoxy-pyridin-3-yl)-phenyl]-4-methyl-7,8-dihydro-6H-quinazolin-5-one], the IC50 is below 1000 nM.
Consider `Cc1nc(N)nc2c1C(=O)CC(c1ccccc1SC(C)(C)C)C2` (stereo not shown) [Compound 180, 2-amino-7-(2-tert-butylsulfanyl-phenyl)-4-methyl-7,8-dihydro-6H-quinazolin-5-one], for which the IC50 is below 1000 nM.
Take `COc1ncccc1-n1ccnc1C1CC(=O)c2c(C)nc(N)nc2C1` (stereo not shown) [Compound 202, 2-amino-7-[1-(2-methoxy-pyridin-3-yl)-1H-imidazol-2-yl]-4-methyl-7,8-dihydro-6H-quinazolin-5-one]: the IC50 is below 1000 nM.
Turning to `Cc1nc(N)nc2c1C(=O)CC(c1ncsc1-c1cccc(F)n1)C2` (stereo not shown) [Compound 294, 2-amino-7-[5-(6-fluoro-pyridin-2-yl)-thiazol-4-yl]-4-methyl-7,8-dihydro-6H-quinazolin-5-one], the IC50 is below 1000 nM.
As to `COc1cnc(-c2cc(F)ccc2C2CC(=O)c3c(C)nc(N)nc3C2)nc1OC` (stereo not shown) [Compound 276, 2-amino-7-[2-(4,5-dimethoxy-pyrimidin-2-yl)-4-fluoro-phenyl]-4-methyl-7,8-dihydro-6H-quinazolin-5-one], the concentration for half-maximal inhibition (IC50) is below 1000 nM.
For `Cc1nc(N)nc2c1C(=O)CC(c1ccc(F)cc1-c1nccnc1Cl)C2` (stereo not shown) [Compound 228, 2-amino-7-[2-(3-chloro-pyrazin-2-yl)-4-fluoro-phenyl]-4-methyl-7,8-dihydro-6H-quinazolin-5-one], the half-maximal inhibitory concentration (IC50) was in the range of 1000 to 10000 nM.
As to `COc1nc(-c2cc(F)ccc2[C@@H]2CC(=O)c3c(C)nc(N)nc3C2)ncc1C` [Compound 275, (S)-2-amino-7-[4-fluoro-2-(4-methoxy-5-methyl-pyrimidin-2-yl)-phenyl]-4-methyl-7,8-dihydro-6H-quinazolin-5-one], the IC50 is below 1000 nM.
Same read-out and setting: the result for `COc1nc(Cl)ncc1-c1cc(F)ccc1C1CC(=O)c2c(C)nc(N)nc2C1` (stereo not shown) [Compound 273, 2-amino-7-[2-(2-chloro-4-methoxy-pyrimidin-5-yl)-4-fluoro-phenyl]-4-methyl-7,8-dihydro-6H-quinazolin-5-one] reads below 1000 nM; that for `Cc1nc(N)nc2c1C(=O)C[C@@H](c1ccc(F)cc1-c1cnc3ncn(C)c3n1)C2` [Compound 331, (S)-2-amino-7-[4-fluoro-2-(3-methyl-3H-imidazo[4,5-b]pyrazin-5-yl)-phenyl]-4-methyl-7,8-dihydro-6H-quinazolin-5-one], above 10000 nM; that for `Cc1nc(N)nc2c1C(=O)CC(c1ccc(F)cc1-c1cccc(C(F)(F)F)n1)C2` (stereo not shown) [Compound 279, 2-amino-7-[4-fluoro-2-(6-trifluoromethyl-pyridin-2-yl)-phenyl]-4-methyl-7,8-dihydro-6H-quinazolin-5-one], below 1000 nM.
`COc1nc(-c2cc(F)ccc2C2CC(=O)c3c(C)nc(N)nc3C2)cnc1F` (stereo not shown) [Compound 233, 2-amino-7-[4-fluoro-2-(5-fluoro-6-methoxy-pyrazin-2-yl)-phenyl]-4-methyl-7,8-dihydro-6H-quinazolin-5-one]: the half-inhibitory concentration (IC50) is below 1000 nM.
As to `COc1ncc(-c2cc(F)ccc2C2CC(=O)c3c(C)nc(N)nc3C2)nc1OC` (stereo not shown) [Compound 322, 2-amino-7-[2-(5,6-dimethoxy-pyrazin-2-yl)-4-fluoro-phenyl]-4-methyl-7,8-dihydro-6H-quinazolin-5-one], the IC50 is below 1000 nM.
As to `Cc1nc(N)nc2c1C(=O)CC(c1ccc(Cl)cc1-c1cncnc1)C2` (stereo not shown) [Compound 250, 2-amino-7-(4-chloro-2-pyrimidin-5-yl-phenyl)-4-methyl-7,8-dihydro-6H-quinazolin-5-one], the IC50 is below 1000 nM.
The same measure, in the same setting: to `Cc1nc(N)nc2c1C(=O)CC(c1ncccc1OC(C)C)C2` (stereo not shown) [Compound 175, 2-amino-7-(3-isopropoxy-pyridin-2-yl)-4-methyl-7,8-dihydro-6H-quinazolin-5-one] belongs below 1000 nM.

For the origin of these results see patent US20070027150A1 (priority 2005, published 2007).
